Assay results taken from patent US20040147494A1, “Use” (priority 2001, published 2004).
Several values for one entry are separate records, joined by “and”; a condition that tells them apart may be missing. Equal entries are not always repeated. Structures can show the parent of a compound that is named as a salt. Where two headings read alike, the source gives them in different places.

Assays:
11 β-HSD type 1 = biological target: T1, 11 β-HSD type 1 (Rattus norvegicus, UniProt P16232); experiment: biochemical; format: biochemical; details: rat liver cytosol 25 μL, 90 min, 37° C., cortisone (E) to cortisol (F), vs control without inhibitor, means n=2; for inhibition at 10 µM: read-out: % […]→F ± SD, inhibitor 10 μM; for % INHIBITION E→F ± SD: inhibitor 10 μM
T1 construct: Both the kidneys and livers were homogenised on ice in PBS- sucrose buffer; tissue Harlan Olac, Bicester, Oxon, UK (rats); host or cells: rat liver homogenate supernatant (Wistar rat)

11 β-HSD type 2 = biological target: T2, 11 β-HSD type 2 (Rattus norvegicus, UniProt P50233); experiment: biochemical; details: for inhibition at 10 µM: read-out: % […]→E ± SD, inhibitor 10 μM
T2 construct: Both the kidneys and livers were homogenised on ice in PBS- sucrose buffer; tissue Harlan Olac, Bicester, Oxon, UK (rats); host or cells: rat kidney homogenate supernatant (Wistar rat)
T2 sequence (P50233 1-400): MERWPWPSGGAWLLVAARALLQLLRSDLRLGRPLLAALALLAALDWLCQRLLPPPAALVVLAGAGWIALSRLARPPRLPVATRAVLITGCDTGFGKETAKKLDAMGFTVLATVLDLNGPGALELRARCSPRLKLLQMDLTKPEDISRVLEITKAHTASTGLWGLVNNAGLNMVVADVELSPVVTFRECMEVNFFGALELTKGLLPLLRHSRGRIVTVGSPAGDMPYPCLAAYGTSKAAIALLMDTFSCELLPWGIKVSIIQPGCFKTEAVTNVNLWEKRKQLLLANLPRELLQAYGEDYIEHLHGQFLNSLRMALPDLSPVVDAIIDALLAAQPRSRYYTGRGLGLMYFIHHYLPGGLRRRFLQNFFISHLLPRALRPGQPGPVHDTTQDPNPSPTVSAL
Method: Enzymes—Rat livers and rat kidneys were obtained from normal Wistar rats (Harlan Olac, Bicester, Oxon,UK). Both the kidneys and livers were homogenised on ice in PBS- sucrose buffer (1 g/10 ml) using an Ultra-Turrax. After the livers and kidneys were homogenised the homogenate was centrifuged for five minutes at 4000 rpm. The supernatant obtained was removed and stored in glass vials at −20° C. The amount of protein per μl of rat liver and kidney cytosol was determined using the Bradford method.
The same procedure was used for the 11 β-HSD type 2 assay, the conversion F to E, to determine the amount of rat kidney to be used and the incubation time.
In these assays the influence of different inhibitors on the 11 β-HSD activity both in reductive (type 1) and oxidative (type 2) directions were assessed. In the reductive direction E is the substrate and F the product and visa versa in the case of oxidation. The method described here is for the oxidative direction.
The substrate solution contained about 50,000 cpm/ml ^3H—F in PBS-sucrose and 0.5 pM F. 1 ml of the substrate solution was added to each tube, the inhibitors were also added, at a 10 μM concentration, to each tube except to the “control” and “blank” tubes. 150 μL was added to all tubes except to the blanks, this was done to correct for the amount of ^3H[…]. The tubes were incubated for 60 minutes in a mechanically shaken water bath at 37° C. […] After incubation 50 μL of recovery was added to correct for the losses made in the next steps, containing 5000 cpm/50 μL of ^14C-E and 50 μg/50 μL of unlabelled E (to visualise the spot on the TLC-plate). The aqueous mixture was then extracted with 4 ml of ether (2×30 sec cycle, vortex mix). After freezing the aqueous phase, the ether (upper) layer was decanted into smaller tubes and evaporated at 45° C. until completely dry. The residue was then re-dissolved in 6 drops of ether and transferred to a TLC-plate. The TLC-plate was developed in chloroform:methanol (9:1 v/v) solvent system, the TLC-plate ran for about 90 minutes until the solvent front had moved about 18 cm. The position of the product E was visualised under UV-light and cut out from the TLC-plate and put into scintillation vials. Radioactivity was eluted over 5 minutes with 0.5 ml methanol. 0.5 ml of PBS- sucrose and 10 ml of Ecoscint were then added and vortex mixed before counting in the scintillation counter. Before counting the samples, two total activity vials were prepared. These contained 0.5 ml of the substrate solution, 50 μL of the recovery, 0.5 ml of methanol and 10 ml of Ecoscint. These two total activity vials were needed to determine the amount of ^14C-E and ^3H—F added in the beginning to make the calculations.
To look at the percentage of inhibition four different concentrations, 1, 5, 10 and 20 μM, were used. The method for both the rat liver, type 1 the reductive, and rat kidney, type 2 the oxidative, stay the same throughout the entire experiment.
In this experiment the influence of different inhibitors on the conversion E to F and F to E was determined. The reason why inhibition in both directions was examined was to make a comparison between the inhibitors and which type of 11 β-HSD they inhibit more. Thirty-two compounds were screened for their ability to inhibit 11 β-HSD type 1 (E to F) and type 2 (F to E). […] The percent of inhibition was calculated as the percentage of decrease in radio labelled ^3H-E and ^3H—F of product formed, compared with the control activity (the tubes without an inhibitor in it). All the results calculated are means, n=2.

[1] = read-out: % INHIBITION E→F ± SD
[2] = rat kidney cytosol 150 μL, 60 min, 37° C., cortisol (F) to cortisone (E), vs control without inhibitor, means n=2, read-out: % INHIBITION F→E ± SD

T1 sequence (P16232 whole entry): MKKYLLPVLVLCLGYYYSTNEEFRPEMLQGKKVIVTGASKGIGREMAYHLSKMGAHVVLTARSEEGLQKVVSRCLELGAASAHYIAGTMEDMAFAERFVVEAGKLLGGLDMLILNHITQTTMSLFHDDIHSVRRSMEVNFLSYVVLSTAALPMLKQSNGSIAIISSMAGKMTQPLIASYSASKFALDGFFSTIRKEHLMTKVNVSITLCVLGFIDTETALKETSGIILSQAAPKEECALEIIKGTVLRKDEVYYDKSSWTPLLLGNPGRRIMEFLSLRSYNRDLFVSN

Row | SMILES | inhibition at 10 µM (11 β-HSD type 1; [1]) | inhibition at 10 µM (11 β-HSD type 2; [2]) | further results
1 | C[C@]12CCC(=O)C=C1CCC1C2C(O)C[C@]2(C)C(=O)CCC12 (stereo partly drawn) [11β-OH-Androstenedione, reference compound] | 55.2 ± 0.26% | 40.9 ± 4.67% | 
2 | CC1(C)C(=O)CC[C@]2(C)C3C(=O)C=C4[C@H]5C[C@@](C)(C(=O)O)CC[C@]5(C)CC[C@@]4(C)[C@]3(C)CC[C@@H]12 (stereo partly drawn) [BLE99005, 3,11-Dioxo-18α-olean-12-en-30-oic acid] | 87% |  | % INHIBITION E→F ± SD (11 β-HSD type 1; 10 µM): 86.9 ± 0.882%
3 | CC1(C)CC[C@]2(C(=O)O)CC[C@]3(C)C(=CC[C@@H]4[C@@]5(C)CCC(=O)C(C)(C)[C@@H]5CC[C@]43C)[C@@H]2C1 [BLE99006, 3-Oxo-oleanoic acid] |  |  | % INHIBITION E→F ± SD (11 β-HSD type 1; 10 µM): 22% and 22.2 ± 0.354%; % INHIBITION F→E ± SD (11 β-HSD type 2; inhibitor 10 μM, rat kidney cytosol 150 μL, 60 min, 37° C., cortisol (F) to cortisone (E), vs control without inhibitor, means n=2): 45.6 ± 11.030%
4 | CC1(C(=O)O)CCC2(C)CCC3C(=CC(=O)C4C3(C)CCC3C(C)(C)C(OC(=O)CCC(=O)O)CCC34C)C2C1 (stereo not shown) [Carbenoxalone, Carbenoxalone (disodium salt), reference compound] | 52.2 ± 4.8% | 100% | 
5 | C[C@]12CCC(=O)C=C1CC[C@@H]1[C@@H]2[C@@H](O)C[C@@]2(C)[C@H]1CC[C@]2(O)C(=O)CO [Cortisol, reference compound] | 49.6 ± 5.87% | 54.7 ± 4.24% | 
6 | CC(=O)C1CCC2C3CCC4=CC(=O)CC[C@]4(C)C3[C@H](O)C[C@]12C (stereo partly shown) [DG322B, 11-hydroxy-Progesterone] | 32.6 ± 3.75% |  | 
7 | C[C@H](CCC(=O)O)[C@H]1CC[C@H]2[C@@H]3CC[C@@H]4C[C@H](O)CC[C@]4(C)[C@H]3C[C@H](O)[C@]12C [Deoxycholic acid, reference compound] | 27.6 ± 7.85% | -1.1 ± 8.27% | stimulation of 11 β-HSD type 2 (F to E) (11 β-HSD type 2; inhibitor 10 μM, rat kidney, printed as stimulation, not inhibition): 1%
8 | CC(=O)[C@H]1CC[C@H]2[C@@H]3CC=C4C[C@@H](O)CC[C@]4(C)[C@H]3CC[C@]12C [Pregnenolone, reference compound] |  |  | inhibition at 10 µM (11 β-HSD type 1): 49.8 ± 9.36%; inhibition at 10 µM (11 β-HSD type 2; rat kidney cytosol 150 μL, 60 min, 37° C., cortisol (F) to cortisone (E), vs control without inhibitor, means n=2): 42.1 ± 0.777%
9 | CC(=O)C1CCC2C3CCC4=CC(=O)CC[C@]4(C)C3CC[C@]12C (stereo partly shown) [Progesterone, reference compound] | 73% | 68.5 ± 0.707% | 
10 | CC1(C)C2CC[C@]3(C)C(CC=C4[C@@H]5C[C@@](C)(C(=O)O)CC[C@]5(C)CC[C@]43C)[C@@]2(C)CC[C@@H]1O (stereo partly drawn) [STX122, 11-Deoxo-18β-glycerrhetinic acid] | 92.7 ± 1.23% | 109 ± 1.64% | 
11 | COC(=O)[C@@]1(C)CC[C@]2(C)CC[C@]3(C)C(=CC(=O)C4[C@@]5(C)CCC(=O)C(C)(C)C5CC[C@]43C)[C@@H]2C1 (stereo partly drawn) [STX194, Methyl 3-oxo-18β-glycerrhetate] | 65.8 ± 5.69% | 75 ± 2.93% | 
12 | COC(=O)[C@@]1(C)CC[C@]2(C)CC[C@]3(C)C(=CC(=O)C4[C@@]5(C)CC[C@H](O)C(C)(C)C5CC[C@]43C)[C@@H]2C1 (stereo partly drawn) [STX195, 3β-Hydroxy-11-oxo-18β-glycyrrhetinic acid methyl ester] | 85.4 ± 2.29% | 105 ± 1.55% | 
13 | CO[C@H]1CC[C@@]2(C)C(CC[C@]3(C)C2C(=O)C=C2[C@@H]4C[C@@](C)(C(=O)O)CC[C@]4(C)CC[C@]23C)C1(C)C (stereo partly drawn) [STX195a, 3β-Methoxy-11-oxo-18β-glycerrhetinic acid] | 53 ± 1.02% | 90.3 ± 1.98% | 
14 | CCO[C@H]1CC[C@@]2(C)C(CC[C@]3(C)C2C(=O)C=C2[C@@H]4C[C@@](C)(C(=O)O)CC[C@]4(C)CC[C@]23C)C1(C)C (stereo partly drawn) [STX196a, 3β-Ethoxy-11-oxo-18β-glycerrhetinic acid] | 55 ± 0.022% | 93.9 ± 1.77% | 
15 | CC1(C)[C@@H](O)CC[C@]2(C)[C@H]3C(=O)C=C4[C@@H]5C[C@@](C)(C(=O)OCCc6ccccc6)CC[C@]5(C)CC[C@@]4(C)[C@]3(C)CC[C@@H]12 [STX197, 3β-hydroxy-11-oxo-18β-glycyrrhetinic acid phenylethyl ester] |  |  | % INHIBITION E→F ± SD (11 β-HSD type 1): 53.0 ± 0.935%
16 | CC1(C)[C@@H](O)CC[C@]2(C)[C@H]3C(=O)C=C4[C@@H]5C[C@@](C)(C(=O)O)CC[C@]5(C)CC[C@@]4(C)[C@]3(C)CC[C@@H]12 [STX352, 3β-Hydroxy-11-oxo-18β,20β-olean-12-en-29-oic acid, reference compound] | 85.2 ± 3.69% |  | 
17 | CC1(C)[C@@H](O)CC[C@]2(C)[C@H]3C(=O)C=C4[C@H]5C[C@@](C)(C(=O)O)CC[C@]5(C)CC[C@@]4(C)[C@]3(C)CC[C@@H]12 [STX353, 3β-Hydroxy-11-oxo-18α,20β-olean-12-en-29-oic acid, reference compound] | 89 ± 1.49% |  | 
18 | CC1(C)C(O)CC[C@@]2(C)C1CC[C@]1(C)C2CC=C2[C@@H]3C[C@@](C)(C(=O)OCc4ccccc4)CC[C@]3(C)CC[C@]21C (stereo partly shown) [STX 296] | 37.7 ± 8.85% | 33.8 ± 15.8% | 
19 | CCOC(=O)[C@@]1(C)CC[C@]2(C)CC[C@]3(C)C(=CC(=O)C4[C@@]5(C)CC[C@H](OCc6ccccc6)C(C)(C)C5CC[C@]43C)[C@@H]2C1 (stereo partly shown) [STX 297] | 34.3 ± 8.26% | 58.7 ± 10.4% | 
20 | CC(C)(C)OC(=O)[C@@]1(C)CC[C@]2(C)CC[C@]3(C)C(=CC(=O)C4[C@@]5(C)CC[C@H](O)C(C)(C)C5CC[C@]43C)[C@@H]2C1 (stereo partly shown) [STX 298] | 50.6 ± 4.43% | 22.6 ± 12.9% | 
21 | COC(=O)[C@@]1(C)CC[C@]2(C)CC[C@]3(C)C(=CCC4[C@@]5(C)CC[C@H](O)C(C)(C)C5CC[C@]43C)[C@@H]2C1 (stereo partly shown) [STX 299] | 20.2 ± 1.89% | 19.5 ± 1.66% | 
22 | CC1(C)C(=O)CC[C@@]2(C)C1CC[C@]1(C)C2C(=O)C=C2[C@@H]3C[C@@](C)(C(=O)O)CC[C@]3(C)CC[C@]21C (stereo partly drawn) [STX 347, 3-Oxo-18β-glycerrhetinic acid] | 89.37 ± 0.1% |  | 
23 | CC1(C)C2CC[C@]3(C)C(C(=O)C=C4[C@@H]5C[C@@](C)(C(=O)OCc6ccccc6)CC[C@]5(C)CC[C@]43C)[C@@]2(C)CC[C@@H]1O (stereo partly shown) [STX 348] | 63.4 ± 1.45% | 94.77 ± 0.17% | 
24 | CC1(C)C2CC[C@]3(C)[C@H](C(=O)C=C4[C@@H]5C[C@@](C)(C(=O)NCc6ccccc6)CC[C@]5(C)CC[C@]43C)[C@@]2(C)CC[C@@H]1O (stereo partly drawn) [STX 366, 18β-Glycyrrhetinic Acid Benzylamide] | 85.2 ± 1.09% |  | 
